Assay results as given in patent publication US20190192524A1, “Modulators of Caspase-6” (The University of British Columbia, priority 2014, published 2019).

Experiments:
[1] = test system: primary cortical neurons; test: Neuronal viability during excitotoxic (NMDA) stress, intracellular ATP; type: cell-based, FVB/N mice; conditions: 10 uM compound; NMDA 25 uM or 50 uM, 20 h
Protocol: Cortical neuronal cultures from FVB mice were prepared as described (Metzler et al, J Neurosci (2007) 27(9):2298). […] The measurement of intracellular ATP was used as an assessment of neuronal viability as described previously (Uribe et al, HMG 2012. 21(9):1954-67) using the Cell-titer glo kit from Promega according to manufacturer's instructions.
It has been previously been shown in HD animal models that neuronal cells expressing mHTT have an increased vulnerability to excitotoxic stress (Graham et al. 2005. Neurobiol. Dis. 21:444-455) and that this may be mediated by caspase 6 (Graham et al. 2006. Cell 6(13):1179-1191 and Uribe et al HMG 2012; 21(9):1954-67). The link between NMDA-induced toxicity and other neurodegenerative diseases has been reviewed by Lipton et al., Nat Rev Drug Discovery 2006. 5:160-170. Therefore, the effect of the presence of the PG-3d compound on the ability of neuronal cells to survive during excitotoxic stress via its ability to inhibit the caspase-6 enzyme was investigated.

[2] = target: T1, recombinant caspase-6 (Homo sapiens, UniProt P55212); test: Simultaneous caspase-6 cleavage and 586 fragment detection by FRET; type: biochemical; conditions: cell-free; Htt substrate from COS-7 cell lysates
T1 construct: purchased BioMol
T1 sequence (P55212 24-293): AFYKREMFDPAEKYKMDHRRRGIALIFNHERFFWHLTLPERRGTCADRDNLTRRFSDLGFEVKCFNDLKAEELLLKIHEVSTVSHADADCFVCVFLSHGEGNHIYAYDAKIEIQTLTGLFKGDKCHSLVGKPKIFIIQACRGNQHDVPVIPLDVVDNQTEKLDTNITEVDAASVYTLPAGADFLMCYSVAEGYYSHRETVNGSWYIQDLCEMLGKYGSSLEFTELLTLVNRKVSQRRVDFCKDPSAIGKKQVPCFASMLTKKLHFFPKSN
Protocol: Different concentrations of the PG3 compounds were incubated with the Htt protein and the caspase-6 enzyme. The Htt substrate from COS-7 cell lysates is cleaved by caspase 6 and fragments are detected by FRET between the N-terminal BKP1 antibody and the neo-epitope antibody against amino acid 586.
COS-7 cells were grown in DMEM supplemented with 10% fetal bovine serum, 1%/penicillin/streptomycin and 0.5% glutamine. Transfections were performed using the Fugene reagent (Roche) according to manufacturer's instructions. The transfected DNA encodes amino acids 1-1212 of the human Htt protein with 15 glutamines and a C-terminal HA-tag, under control of a CMV promoter (Warby, 2008, supra; Wellington et al., 2000. J Biol Chem 275:19831-19838). The construct that was transfected is 4c Htt, which contains D→A mutations at amino acids 513, 530, 552 and […] (SEQ ID NO: 1). 24 h after transfection, cells were harvested by trypsinization, pellets washed in PBS and lysed by suspension in lysis buffer (50 mM Tris pH 8, 150 mM NaCl, 1% Igepal, supplemented with 1× complete protease inhibitor (Roche) and 4 mM Pefabloc). Lysates were incubated on ice for 10 min, vortexed and sonicated for 4 sec before centrifugation at 21,000×g for 10 min at 4° C. Supernatants were saved, protein concentration determined with the Biorad DC assay and stored at −80° C. until use.
Dilution series of cell lysates and caspase-6 (2.2× final concentration) were prepared in FRET cleavage buffer (10 mM HEPES pH 7.4, 100 mM NaCl, 0.05% gelatin, 0.1% CHAPS, 2 mM DTT) since this buffer was previously found to best stabilize caspase-6 in dilute form at room temperature. For negative controls, 22 μM zVAD-fmk was added to the caspase-6 dilutions.
Tb-labelled BKP1 antibody and D2-labelled 586 antibody (Cisbio) were diluted to 1 ng/μl (Tb) and 10 ng/μl (D2) in FRET cleavage buffer and pre-mixed at a 1:1 ratio.
In each well of a white 384 well plate (Nunc), 10 μl cell lysate were mixed with 10 μl caspase and 2 μl antibody mix, the plate was centrifuged briefly and incubated in the Victor 3 multilabel plate reader (Perkin Elmer) at 37° C. FRET was measured every 30 min for up to 2 h with the following settings: Excitation: 340 nm, Emission 1: 615 nm, Emission 2: 665 nm, 50 μs delay, 200 μs window time, 2000 μs cycle time. To obtain the final FRET signal, the ratio between Emission 2/Emission 1 (D2/Tb signal) was calculated. After 2 h at 37° C., the assay plate was sealed and after further incubation at 4° C. for 20 h, the FRET signal was read again.

`O=c1oc(C#Cc2ccccc2)nc(O)c1Cc1ccccc1` [PG-3d, 5-Benzyl-4-hydroxy-2-(phenylethynyl)-6H-1,3-oxazin-6-one] was tested, and the “cell viability (intracellular ATP)” value [1] was “significant improvement” and the IC50 [2] was 5.6 µM.
